# Data from PMC10713593, “Staphylococcus aureus functional amyloids catalyze degradation of β-lactam antibiotics” (Nature Communications, 2023).
# Key:
# [1] = Nitrocefin hydrolysis kinetics (absorbance of degraded nitrocefin at 480 nm; initial rates V0, Michaelis-Menten fit); format: biochemical; parameters: Initial nitrocefin-degradation reaction rate, V0: unit not given here; details: nitrocefin 60 µM; for Initial nitrocefin-degradation reaction rate, V0: Hepes pH 7.4, average of the six runs; for nitrocefin degradation yield (turnover): PSMα assemblies 350 µM, Hepes 50 mM pH 7.4, 20 °C, A480, monitored 2 h (Fig. 2a)
# Procedure: Nitrocefin, a β-lactam widely used as a surrogate substrate of Penicillin in β-lactamase activity assay, was used as a substrate. NC degradation was monitored for 2 h. Nitrocefin stock solution was dissolved in acetonitrile (20 mM) and then diluted with Hepes buffer (50 mM, pH 7.4) to nitrocefin concentration of 360 µM (further dilutions to lower concentrations were made with the 360 µM NC stock). All nitrocefin samples were kept on ice in cold conditions and any further dilution or mixing was performed in ice-cold conditions to avoid self-hydrolysis background reaction. […] Immediately after mixing the samples, the plate was transferred to 20̊ °C pre-cooled plate reader (Multiskan GO, Thermo Scientific, Waltham, MA) and shaken slowly for 10 s. Then, the absorbance of degraded nitrocefin was measured for 2 h at interval of 20 s at λ = 480 nm. Initial production rates (V0) were calculated by slope of the initial linear range of degraded-nitrocefin production at the first 15 min. The reported results are and average of at least five separate measurements (the exact number of repeats, N, is reported next to the values). Each experiment also included blank samples of nitrocefin substrate diluted with buffer instead of PSMα. […] The initial rate calculations were performed while also subtracting the self-degradation of the substrate, to ensure that this product absorbance is a result of PSMα presence.
# The initial rates of degraded-nitrocefin production were calculated from the slopes of the first 15 min of measurement as reported above. The initial rates (V0) were fitted using non-linear regression applied with the solver function in excel, either to Michalis–Menten equation V=Vmax.[S]/(KM+S) Where Vmax. Stands for maximal reaction rate, KM stands for Michalis–Menten constant, [S] stands for the substrate molar concentration. Each initial rate value was presented as average ± SEM. The kinetic parameters were calculated by fitting the data to MM model using non-linear regression, and the confidence intervals for each parameter were calculated accordingly.
# PSMα3 fibrils = PSMα3 fibrils (Staphylococcus aureus, UniProt A9JX07); test: LC-MS degradation of amoxicillin and penicillin G with PSMα3 fibrils or buffer; format: biochemical; parameters: key to Amoxicillin (remaining) / Degraded Amoxicillin (PSMa3) / Degraded Amoxicillin: % relative abundance from extracted ion chromatogram peak areas; details: for Amoxicillin (remaining) / Degraded Amoxicillin: buffer only (blank); for Amoxicillin (remaining) / Degraded Amoxicillin / Amoxicillin (PSMa3) (remaining) / Degraded Amoxicillin (PSMa3): LC-MS; for Amoxicillin (remaining) / Amoxicillin (PSMa3) (remaining): 366 peak as share of 366+384 sum; for Degraded Amoxicillin / Degraded Amoxicillin (PSMa3): 384 peak as share of 366+384 sum
# Sequence of PSMα3 fibrils (A9JX07 whole entry, looked up): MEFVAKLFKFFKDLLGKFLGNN
# Procedure: Amoxicillin or Penicillin solutions were dissolved in Hepes buffer (50 mM, pH 7.4) in concentration of 50 µM. PSMα3 solution in concentration of 1.54 mM was dissolved in DIW and Hepes buffer was added to the final concentration of 50 mM. The antibiotics’ solutions and preincubated PSMα3 solutions were mixed to final PSMα3 […] 180 µL organic solvent to stop the reaction (acetonitrile for Amoxicillin, methanol in the case of Penicillin). The samples were collected and injected sequentially into the LC-MS analysis.
# Waters ACQUITY UPLC I-Class PLUS System coupled with high-resolution Thermo Orbitrap Exploris 240 mass-spectrometer were used for analysis of Amoxicillin and Penicillin-G over time. 1 µL of each sample was injected into the reverse-phase Acquity UPLC BEH C18 1.7 µm, 2.1 × 50 mm column (Waters) and run under a gradient program (Table S2 for Amoxicillin, Table S3 for Penicillin-G). The samples were ionized using soft electrospray ionization in positive mode and detected in a full scan mode in range from 60 to 900 m/z with a resolution of 240,000 Full Width at Half Maximum. MS was tuned according to the manufacture recommendations. Relative abundance of the intact/degraded compounds was calculated by peak area of the extracted ion chromatogram: for Amoxicillin 366.1–366.12, and degraded-Amoxicillin 384.1–384.13 m/z, Penicillin-G 335.1–335.12, for degraded-Penicillin-G 353.1–353.12, for (Figs. S13 and S14, respectively).
smiles,measurement,setting,value
CC[C@H](C)[C@H](NC(=O)CNC(=O)[C@@H](N)CCSC)C(=O)N[C@H](C(=O)N[C@@H](C)C(=O)NCC(=O)N[C@H](C(=O)N[C@H](C(=O)N[C@@H](CCCCN)C(=O)N[C@@H](Cc1ccccc1)C(=O)N[C@H](C(=O)N[C@@H](CCCCN)C(=O)NCC(=O)N[C@@H](CC(C)C)C(=O)N[C@H](C(=O)N[C@@H](CCC(=O)O)C(=O)N[C@@H](CCCCN)C(=O)N[C@@H](Cc1ccccc1)C(=O)N[C@H](C(=O)NCC(=O)N[C@@H](CCCCN)C(=O)O)[C@@H](C)O)[C@@H](C)CC)[C@@H](C)CC)[C@@H](C)CC)[C@@H](C)CC)[C@@H](C)CC [PSMα2],ATR-FTIR amide-I peak/maximum,,1650 cm⁻¹
same,"Initial nitrocefin-degradation reaction rate, V0",[1]; PSMα 4.01424 uM,1.158
same,"Initial nitrocefin-degradation reaction rate, V0",[1]; PSMα 6.02136 uM,-0.4109
same,"Initial nitrocefin-degradation reaction rate, V0",[1]; PSMα 9.03205 uM,0.9321
same,"Initial nitrocefin-degradation reaction rate, V0",[1]; PSMα 13.5481 uM,0.6055
same,"Initial nitrocefin-degradation reaction rate, V0",[1]; PSMα 20.3221 uM,1.35
same,"Initial nitrocefin-degradation reaction rate, V0",[1]; PSMα 30.4832 uM,1.3793
same,"Initial nitrocefin-degradation reaction rate, V0",[1]; PSMα 45.7247 uM,2.588
same,"Initial nitrocefin-degradation reaction rate, V0",[1]; PSMα 68.5871 uM,11.4228
same,"Initial nitrocefin-degradation reaction rate, V0",[1]; PSMα 102.881 uM,36.0382
same,"Initial nitrocefin-degradation reaction rate, V0",[1]; PSMα 154.321 uM,59.4111
same,"Initial nitrocefin-degradation reaction rate, V0",[1]; PSMα 231.481 uM,94.344
same,"Initial nitrocefin-degradation reaction rate, V0",[1]; PSMα 347.222 uM,117.315
same,nitrocefin degradation yield (turnover),[1],~100%
CC[C@H](C)[C@H](NC(=O)[C@H](C)NC(=O)[C@@H](N)CCSC)C(=O)N[C@H](C(=O)NCC(=O)N[C@H](C(=O)N[C@H](C(=O)N[C@H](C(=O)N[C@@H](CCCCN)C(=O)N[C@H](C(=O)N[C@H](C(=O)N[C@@H](CCCCN)C(=O)N[C@@H](C)C(=O)N[C@H](C(=O)N[C@H](C(=O)N[C@@H](CC(=O)O)C(=O)N[C@H](C(=O)N[C@@H](Cc1ccccc1)C(=O)N[C@@H](C)C(=O)N[C@@H](CCCCN)C(=O)O)[C@@H](C)CC)[C@@H](C)CC)[C@@H](C)CC)[C@@H](C)CC)[C@@H](C)CC)[C@@H](C)CC)[C@@H](C)CC)[C@@H](C)O)C(C)C [PSMα4],ATR-FTIR amide-I peak/maximum,,1620 cm⁻¹
same,"Initial nitrocefin-degradation reaction rate, V0",[1]; PSMα 4.01424 uM,0.5451
same,"Initial nitrocefin-degradation reaction rate, V0",[1]; PSMα 6.02136 uM,0.5496
same,"Initial nitrocefin-degradation reaction rate, V0",[1]; PSMα 9.03205 uM,-0.2169
same,"Initial nitrocefin-degradation reaction rate, V0",[1]; PSMα 13.5481 uM,1.372
same,"Initial nitrocefin-degradation reaction rate, V0",[1]; PSMα 20.3221 uM,0.8016
same,"Initial nitrocefin-degradation reaction rate, V0",[1]; PSMα 30.4832 uM,1.8
same,"Initial nitrocefin-degradation reaction rate, V0",[1]; PSMα 45.7247 uM,3.313
same,"Initial nitrocefin-degradation reaction rate, V0",[1]; PSMα 68.5871 uM,-1.824
same,"Initial nitrocefin-degradation reaction rate, V0",[1]; PSMα 102.881 uM,15.0899
same,"Initial nitrocefin-degradation reaction rate, V0",[1]; PSMα 154.321 uM,17.903
same,"Initial nitrocefin-degradation reaction rate, V0",[1]; PSMα 231.481 uM,15.5904
same,"Initial nitrocefin-degradation reaction rate, V0",[1]; PSMα 347.222 uM,26.4203
same,nitrocefin degradation yield (turnover),[1],~ 15%
CC1(C)S[C@@H]2[C@H](NC(=O)[C@H](N)c3ccc(O)cc3)C(=O)N2[C@H]1C(=O)O [amoxycillin],hydrolysis by PSMα3 fibrils versus spontaneous degradation,"PSMα3 fibrils; antibiotic 40 µM, PSMα3 fibrils 308 µM, Hepes 50 mM pH 7.4, LC-MS (Fig. 6)",significantly higher extent compared to the spontaneous degradation
same,Amoxicillin (remaining),PSMα3 fibrils; 0h,81.4445
same,Degraded Amoxicillin,PSMα3 fibrils; 0h,18.5555
same,Amoxicillin (remaining),PSMα3 fibrils; 4h,80.1864
same,Degraded Amoxicillin,PSMα3 fibrils; 4h,19.8136
same,Amoxicillin (remaining),PSMα3 fibrils; 8h,79.6866
same,Degraded Amoxicillin,PSMα3 fibrils; 8h,20.3134
same,Amoxicillin (remaining),PSMα3 fibrils; 12h,78.9455
same,Degraded Amoxicillin,PSMα3 fibrils; 12h,21.0545
same,Amoxicillin (remaining),PSMα3 fibrils; 24h,78.1892
same,Degraded Amoxicillin,PSMα3 fibrils; 24h,21.8108
same,Amoxicillin (remaining),PSMα3 fibrils; 60h,69.9317
same,Degraded Amoxicillin,PSMα3 fibrils; 60h,30.0683
same,Amoxicillin (remaining),PSMα3 fibrils; 72h,68.3628
same,Degraded Amoxicillin,PSMα3 fibrils; 72h,31.6372
same,Amoxicillin (remaining),PSMα3 fibrils; 80h,59.5525
same,Degraded Amoxicillin,PSMα3 fibrils; 80h,40.4475
same,Amoxicillin (PSMa3) (remaining),"PSMα3 fibrils; with PSMa3, 0h",79.7112
same,Degraded Amoxicillin (PSMa3),"PSMα3 fibrils; with PSMa3, 0h",20.2888
same,Amoxicillin (PSMa3) (remaining),"PSMα3 fibrils; with PSMa3, 4h",78.2636
same,Degraded Amoxicillin (PSMa3),"PSMα3 fibrils; with PSMa3, 4h",21.7364
same,Amoxicillin (PSMa3) (remaining),"PSMα3 fibrils; with PSMa3, 8h",74.8273
same,Degraded Amoxicillin (PSMa3),"PSMα3 fibrils; with PSMa3, 8h",25.1727
same,Amoxicillin (PSMa3) (remaining),"PSMα3 fibrils; with PSMa3, 12h",70.3173
same,Degraded Amoxicillin (PSMa3),"PSMα3 fibrils; with PSMa3, 12h",29.6827
same,Amoxicillin (PSMa3) (remaining),"PSMα3 fibrils; with PSMa3, 24h",62.2462
same,Degraded Amoxicillin (PSMa3),"PSMα3 fibrils; with PSMa3, 24h",37.7538
same,Amoxicillin (PSMa3) (remaining),"PSMα3 fibrils; with PSMa3, 60h",12.8041
same,Degraded Amoxicillin (PSMa3),"PSMα3 fibrils; with PSMa3, 60h",87.1959
same,Amoxicillin (PSMa3) (remaining),"PSMα3 fibrils; with PSMa3, 72h",5.039
same,Degraded Amoxicillin (PSMa3),"PSMα3 fibrils; with PSMa3, 72h",94.9606
same,Amoxicillin (PSMa3) (remaining),"PSMα3 fibrils; with PSMa3, 80h",3.011
same,Degraded Amoxicillin (PSMa3),"PSMα3 fibrils; with PSMa3, 80h",96.9892
